Data from EP4506003A1, “HALOGEN DERIVATIVES OF (4´,5´- METHYLENEDIOXYPHENYL)-6,7-DIMETHOXY-1,2,3,4-TETRAHYDROISOQUINOLINE FOR USE IN THE TREATMENT OF LEUKEMIA” (S.Yu Yunusov Institute of Chemistry of Plant Substances of …, priority 2023, dated 2025).
Marks after values point to notes of the source that are not given here.

How the values were obtained:
fibroblasts = test: MTT cytotoxicity on fibroblasts; assay type: cell-based; conditions: Fibroblast, 24 hours
Experimental: (§1) The cytotoxic properties of the compounds were determined in vitro using the MTT method in 96-well plates (Costar, USA). […] Rat liver hepatocytes were obtained according to the method, human blood mononuclear cells - according to [23]. Fibroblast cells were obtained according to the method of [24] with some modifications. Cell cultures were subcultured into 96-well plates according to the method of [21] by adding 100 μl of nutrient medium. The CCRF-CEM suspension culture was poured into a tube, centrifuged at 800 rpm for 10 minutes, and the supernatant was discarded. […] Data obtained in 3 independent experiments were expressed as the mean value for each concentration ± standard error of the mean, relative to the control values (cells without test compounds). The cytotoxic effect of each of the studied compounds was compared with the effect of the cytostatic Cisplatin-Naprod (India), containing cisplatin as an active component. Table 1: IC50 μM value for test compounds

[1] = system: blood of patients with ALL; test: Hemogram of blood of patients with ALL after exposure; assay type: cell-based
Experimental: (§4) The effect of compounds F1 and F2 was studied on biological material (blood) of patients with hematological malignancies (leukemia), as well as for individual nosologies, in particular, patients with leukemia (combined group) (n=224), T-ALL (n=84), B-ALL (n=100), ALL (n=100), AML (n= 98), AML (n=94) and AML (n= 98) were studied. A total of 798 blood samples from patients with leukemia were examined.
(§5) 5 ml of venous blood from sick and conditionally healthy individuals were collected into Vacutainer tubes with the addition of EDTA (Himedia, India).
(§6) The resulting blood was divided into aliquots of 1 ml and 10 µl (10 µg/ml) of the studied drugs (cytosar, doxorubicin, F1 and F2) were added to each tube.

outbred white mice = test: Acute toxicity study (LD50)
Experimental: (§2) We studied the acute toxicity of compound F1 in vivo. The experiments were carried out on outbred white mice of both sexes weighing 18-20 g (24 pcs.). The animals were divided into groups of 12 mice each. The compound was dissolved in DMSO and then adjusted to the desired concentration with 0.9% NaCl solution and administered intraperitoneally and subcutaneously in a dose range from 5.0 to 200.0 mg/kg. […] The maximum relative error of the applied dose was no more than 5%.
(§3) We studied the acute toxicity of compound F2 in vivo. The experiments were carried out on outbred white mice of both sexes weighing 18-20 g (24 pcs.). The animals were divided into groups of 12 mice each. The compound was dissolved in DMSO and then brought to the desired concentration with 0.9% NaCl solution and administered intraperitoneally and subcutaneously to animals in a dose range from 5.0 to 200.0 mg/kg. […] The maximum relative error of the administered dose was no more than 5%.

[2] = Acute toxicity study (LD50); conditions: mouse, in vivo, ip
Experimental: as §2, §3

[3] = system: blood of patients with T-ALL; test: Hemogram of blood of patients with T-ALL after exposure; assay type: cell-based
From the text: as §4
(§7) The drugs Cytosar (Alexan) (Ebewe Pharma, Austria) and doxorubicin (Naprod, Mumbai, India) recommended by WHO for the treatment of the above oncohematological diseases were used as comparison drugs.
as §5, §6

[4] = system: blood of patients with B-ALL; test: Hemogram of blood of patients with B-ALL after exposure; assay type: cell-based
Experimental: A total of 798 blood samples from patients with leukemia were examined.
as §7, §5, §6

[5] = system: blood of patients with AML; test: Hemogram of blood of patients with AML after exposure (Example 12, Table 9); assay type: cell-based
Experimental: as §7, §5, §6

[6] = system: blood of patients with leukemia (combined group); test: Hemogram of blood of patients with leukemia (combined group) after exposure; assay type: cell-based
From the text: as §4, §7, §5, §6

Rat liver hepatocytes = test: MTT cytotoxicity on hepatocytes; assay type: cell-based; conditions: Rattus norvegicus, Hepatocyte, 24 hours
Experimental: as §1

[7] = system: CCRF-CEM (CCL-119) (T-lymphoblastic leukemia); test: MTT cytotoxicity on CCRF-CEM cells; assay type: cell-based; conditions: Homo sapiens, 24 hours
Experimental: as §1

[8] = system: blood of patients with AML; test: Hemogram of blood of patients with AML after exposure (Example 14, Table 11); assay type: cell-based; conditions: AML (Table 11); 10 µg/ml; 3 hours, 37.0°C
From the text: as §4, §7, §5, §6

[9] = system: blood of patients with AML; test: Hemogram of blood of patients with AML after exposure (Example 13, Table 10; also OMML); assay type: cell-based
Experimental: as §7, §5, §6

[10] = AML (Table 9), 10 µg/ml, 3 hours, 37.0°C
[11] = AML (Example 13), compared with doxorubicin
[12] = AML (Table 10), 10 µg/ml, 3 hours, 37.0°C

For `COc1cc2c(cc1OC)C(c1cc3c(cc1Cl)OCO3)NCC2` (centres unmarked) [Compound F2, 1-(2'-chloro-4',5'-methylenedioxyphenyl)-6,7-dimethoxy-1,2,3,4-tetrahydroisoquinoline], the IC50 (fibroblasts) was > 100 µM, the “Band (s/n) neutrophils” value ([1]; 10 µg/ml, 3 hours, 37.0°C) was 0,7±0,2% and the Blasts ([1]; 10 µg/ml, 3 hours, 37.0°C) was 67,9±1,6*^ %. For the same compound, the Destroyed cells ([1]; 10 µg/ml, 3 hours, 37.0°C) was 13,2±1,4*^ # %, the Eosinophils ([1]; 10 µg/ml, 3 hours, 37.0°C) was 0,2±0,1% and the Lymphocytes ([1]; 10 µg/ml, 3 hours, 37.0°C) was 13,4±1,3%. The Monocytes ([1]; 10 µg/ml, 3 hours, 37.0°C) was 1,1±0,3%, the Myelocytes ([1]; 10 µg/ml, 3 hours, 37.0°C) was 0,0±0,0% and the Promyelocytes ([1]; 10 µg/ml, 3 hours, 37.0°C) was 0,0±0,0%. For the same compound, the “Segmented (s/i) neutrophils” value ([1]; 10 µg/ml, 3 hours, 37.0°C) was 3,7±0,7 %, the “percentage of destroyed cells higher” value ([1]; compared to cytosar) was 2.8 times and the “difference in the level of blast cells” value ([1]; compared with cytosar) was 1.16 times. The “increase in the proportion of destroyed cells” value ([1]; in comparison with doxorubicin) was 2.75 times, the toxicity class (outbred white mice; classified from LD50) was “toxicity class 3 (moderately toxic)” and the “LD50 value, times higher than cytosar (cytarabine)” value (outbred white mice; relative to cytosar) was 52 times. For the same compound, the “LD50 value, times higher than doxorubicin” value (outbred white mice; relative to doxorubicin) was 20 times, the LD50 at 168 h [2] was 220 ± 15.6 mg/kg and the “Band (s/n) neutrophils” value ([3]; 10 µg/ml, 3 hours, 37.0°C) was 0,8±0,2%. The Blasts ([3]; 10 µg/ml, 3 hours, 37.0°C) was 68,2±2,2 %, the Destroyed cells ([3]; 10 µg/ml, 3 hours, 37.0°C) was 16,1±1,3 A % and the Eosinophils ([3]; 10 µg/ml, 3 hours, 37.0°C) was 0,0±0,0%. For the same compound, the Lymphocytes ([3]; 10 µg/ml, 3 hours, 37.0°C) was 6,7±0,6*^ # %, the Monocytes ([3]; 10 µg/ml, 3 hours, 37.0°C) was 1,2±0,2*^ % and the Myelocytes ([3]; 10 µg/ml, 3 hours, 37.0°C) was 0,0±0,0%. The Promyelocytes ([3]; 10 µg/ml, 3 hours, 37.0°C) was 0,0±0,000%, the “Segmented (s/i) neutrophils” value ([3]; 10 µg/ml, 3 hours, 37.0°C) was 7,0±1,0*^ % and the “increase in the percentage of destroyed cells” value ([3]; comparator not stated) was 1.8 times. For the same compound, the decrease in lymphocytes ([3]; compared with doxorubicin) was 1.7 times, the decrease in monocytes ([3]; compared with doxorubicin) was 1.9 times and the “increase in the proportion of mature and differentiated neutrophils” value ([3]; comparison with the cytosar group) was 2.3 times. The “decrease in the content of blasts” value [4] was 1.27 times, the “increase in the proportion of destroyed cells” value [4] was 4.9 times and the “Band (s/n) neutrophils” value ([4]; 10 µg/ml, 3 hours, 37.0°C) was 1,7±0,4%. The Blasts ([4]; 10 µg/ml, 3 hours, 37.0°C) was 53,9±2,6 %, the Destroyed cells ([4]; 10 µg/ml, 3 hours, 37.0°C) was 15,2±1,8*^ % and the Eosinophils ([4]; 10 µg/ml, 3 hours, 37.0°C) was 0,0±0,0%. For the same compound, the Lymphocytes ([4]; 10 µg/ml, 3 hours, 37.0°C) was 14,6±2,0%, the Monocytes ([4]; 10 µg/ml, 3 hours, 37.0°C) was 2,8±0,9% and the Myelocytes ([4]; 10 µg/ml, 3 hours, 37.0°C) was 0,8±0,2%. For the same compound, the Promyelocytes ([4]; 10 µg/ml, 3 hours, 37.0°C) was 0,0±0,0%, the “Segmented (s/i) neutrophils” value ([4]; 10 µg/ml, 3 hours, 37.0°C) was 11,1±2,0 % and the “decrease in the percentage of blasts” value ([5]; AML (Example 12)) was 1.2 times. The “increase in the level of destroyed cells” value ([5]; AML (Example 12)) was 4.0 times, the “increase in the proportion of mature differentiated neutrophils” value ([5]; AML (Example 12)) was 2.0 times and the “Band (s/n) neutrophils” value [5, 10] was 0,9±0,4%. For the same compound, the Blasts [5, 10] was 65,6±2,4 %, the Destroyed cells [5, 10] was 8,2±1,1% and the Eosinophils [5, 10] was 0,8±0,5%. The Lymphocytes [5, 10] was 11,5±1,8%, the Monocytes [5, 10] was 4,4±0,9% and the Myelocytes [5, 10] was 1,3±0,7%. The Promyelocytes [5, 10] was 0,4±0,2%, the “Segmented (s/i) neutrophils” value [5, 10] was 7,0±1,1 % and the “Band (s/n) neutrophils” value ([6]; 10 µg/ml, 3 hours, 37.0°C) was 1,6±0,2 %. The Blasts ([6]; 10 µg/ml, 3 hours, 37.0°C) was 65,2±2,8 %, the Destroyed cells ([6]; 10 µg/ml, 3 hours, 37.0°C) was 12,9±1,8 % and the Eosinophils ([6]; 10 µg/ml, 3 hours, 37.0°C) was 1,6±0,3 %. For the same compound, the Lymphocytes ([6]; 10 µg/ml, 3 hours, 37.0°C) was 12,3±1,2%, the Monocytes ([6]; 10 µg/ml, 3 hours, 37.0°C) was 4,7±0,7 % and the Myelocytes ([6]; 10 µg/ml, 3 hours, 37.0°C) was 2,5±0,6 %. The Promyelocytes ([6]; 10 µg/ml, 3 hours, 37.0°C) was 3,8±2,1%, the “Segmented (s/i) neutrophils” value ([6]; 10 µg/ml, 3 hours, 37.0°C) was 5,5±0,9% and the “increase in the level of destroyed cells” value ([6]; compared to the control group) was 2.3 fold. For the same compound, the “decrease in the content of blasts” value ([6]; versus Control group) was 14.6%, the IC50 (Rat liver hepatocytes) was > 100 µM and the IC50 [7] was 21 µM. The “Band (s/n) neutrophils” value [8] was 1,2±0,3%, the Blasts [8] was 59,1±3,3 % and the Destroyed cells [8] was 19,3±1,7 %. The Eosinophils [8] was 0,5±0,2%, the Lymphocytes [8] was 8,2±1,1% and the Monocytes [8] was 1,8±0,3%. The Myelocytes [8] was 0,4±0,1%, the Promyelocytes [8] was 0,0±0,0% and the “Segmented (s/i) neutrophils” value [8] was 9,6±2,5%. For the same compound, the “decrease in the percentage of myelocytes” value ([9]; AML (Example 13)) was 2.1 times, the “decrease in the proportion of blasts” value ([9]; AML (Example 13)) was 11.7% and the “increase in the proportion of destroyed cells” value ([9]; AML (Example 13)) was 2.6 times. For the same compound, the “increase in the proportion of neutrophils” value ([9]; AML (Example 13)) was 2.3 times, the “proportion of destroyed cells higher” value ([9]; AML (Example 13), compared with Cytosar) was 2.1 times and the “percentage of lymphocytes lower” value [9, 11] was 1.9 times. For the same compound, the “percentage of neutrophils lower” value [9, 11] was 1.7 times, the “percentage of myelocytes lower” value ([9]; AML (Example 13), relative to cytosar) was 5.0 times and the “Band (s/n) neutrophils” value [9, 12] was 2,9±0,4%. For the same compound, the Blasts [9, 12] was 51,9±2,2%, the Destroyed cells [9, 12] was 16,6±1,6*^ % and the Eosinophils [9, 12] was 0,5±0,2%. The Lymphocytes [9, 12] was 3,2±0,8 %, the Monocytes [9, 12] was 3,2±0,4 % and the Myelocytes [9, 12] was 3,2±0,5 %. For the same compound, the Promyelocytes [9, 12] was 0,0±0,0% and the “Segmented (s/i) neutrophils” value [9, 12] was 18,6±1,7 %.
